Data published in patent US20260272923A1, “NONSENSE MEDIATED DECAY INHIBITOR COMPOUNDS” (The Johns Hopkins University, priority 2023, published 2026).

Key:
NCI-H358 and LS180 cells = assay: MHC class I HLA presentation of mutant specific peptides by quantitative HPLC-Mass Spectrometry; type: cell-based; details: 24 hours in-vitro, pan-HLA immunoprecipitation
Protocol: Downregulating mutated genes with frame shifts via NMD is one mechanism employed by cancer cells to avoid immune surveillance. To confirm the small molecule could alter the immune landscape of a tumor, cell surface presentation of known mutant proteins was assessed in NCI-H358 and LS180 cells. Cells were treated in-vitro for 24 hours with DMSO or the compound of Formula I in duplicate, cross linked and immunoprecipitated with pan-HLA antibodies to obtain cell surface MHC presented peptides. 187 mutation specific peptides were initially identified that could be potentially presented by using the union of NetMHC and Predictor of Immunogenic Epitopes (PRIME) predictions. These predictions were tested by performing HPLC Mass Spectromety (MS) on cells that were treated in-vitro for 24 hours with DMSO or the compound of Formula I, cross linked and immunoprecipitated with pan-HLA antibodies to obtain cell surface MHC presented peptides. Based on those results, heavy isotope labeled peptides were designed for 14 peptides from NCI-H358, and 24 peptides from LS180 cells with high confidence of MS detection. These heavy labeled peptides were then used as internal standard to perform quantitative HPLC-Mass Spectrometry. […] This is consistent with re-expression of mutant protein shown previously by western blot (FIGS. 3C and 4D). […]

[1] = system: nonsense mediated decay (NMD); assay: NCI-H358 and LS180 xenograft tumors in NOD-SCID mice, mutant RNA transcripts and tolerability; type: in vivo
RENCA (renal) = assay: Syngeneic RENCA tumor mouse model; type: in vivo, mice
Protocol: Confident NMD inhibition with the compound of Formula I was leading to in-vivo changes to the tumor and its immune environment and it was evaluated whether these alterations could be taken advantage of in an immune competent system. Murine RENCA (renal) and LLC (Lewis Lung Cancer) cell lines were chosen as they harbor a large number of out of frame indel mutations based on whole exome DNA sequencing (WES) (Table SX-RENCA and LLC mutations). It was confirmed that treatment of these cell lines could stop NMD mediated repression of mutant RNA, and induced expression of exogenous genes controlled by NMD by real time PCR. Cells were placed in the mammary fat pad of C57BL/6N (LLC also known as LL2) and BALB/c (RENCA) mice, randomly sorted animals after tumors became palpable ensuring to balance the tumor size of each group, and then treated with vehicle or the compound of Formula I (FIG. 6A).

[2] = system: NMD targeted mutant protein (EXOC1, SPTAN1); assay: Western blot of mutant proteins in NCI-H358 and LS180 cells; type: cell-based; details: NCI-H358 and LS180
Description: (§1) It was next sought to evaluate whether LY3023414 could relieve repression of indel containing transcripts in cancer cells. The microsatellite stable NCI-H358 and microsatellite instable LS180 lung and colorectal cancer cell lines were chosen respectively. Nearly 40% of heterozygous indel and 25% of nonsense single base-pair mutation containing genes show increased expression of their mutant allele when treated with LY3023414 when evaluated by RNA sequencing (FIG. 2A). […] Heterozygous single nucleotide polymorphism (SNP) Ring Finger Protein 43 (RNF43) and drosha ribonuclease […] (DROSHA) served as controls, and allele ratios remain unchanged with treatment (FIG. 2B). To investigate for changes at the protein level, NCI-H358 cells were treated for 24 hours with either LY3023414 or DMSO.
(§2) Analyzing a wider set of 21 NMD sensitive genes from the RNA-Seq analysis in LS180 confirmed that LY3023414 and SMG1 specific inhibitor increase the same 18 genes with a greater than 80% re-expression rate, in both cell lines. […] As SMG1 inhibition is an off target effect for LY3023414, the concentrations used in this study may result in inhibition of a number of different kinases.
(§3) To confirm disruption of downstream signaling of SMG1, a western blot was performed with phosphorylation specific antibodies for UPF1.

[3] = system: NCI-H716 and NCI-2228 cell lines with and without HLA-A24 expression; assay: Luciferase cell killing co-culture assay; type: cell-based; details: with human CD8+ T-cells and bispecific antibody
Protocol: To determine whether this relief of repression is targetable, a bispecific antibody targeting wild type TP53 and CD3 was employed. […] To assess if these novel antigens could be utilized for immune driven cell specific killing, NCI-H716 and NCI-2228 cell lines with and without HLA-A24 expression were labeled with luciferase. […] To establish this effect remained in-vivo, NCI-H716 cells expressing HLA-A24 and luciferase were placed orthotopically in NSG mice. Tumor size was measured by luciferase readings via bioluminescence imaging (BLI).

[4] = Physical properties related to solubility; type: physicochemical; details: compared with previously made SMG1 specific inhibitors
LLC (Lewis Lung Cancer) = assay: Syngeneic LLC tumor mouse model; type: in vivo, mice
Description: Murine RENCA (renal) and LLC (Lewis Lung Cancer) cell lines were chosen as they harbor a large number of out of frame indel mutations based on whole exome DNA sequencing (WES) (Table SX-RENCA and LLC mutations). It was confirmed that treatment of these cell lines could stop NMD mediated repression of mutant RNA, and induced expression of exogenous genes controlled by NMD by real time PCR. […]

NCI-H716 and NCI-2228 = assay: Interferon gamma ELISA in co-culture with human CD8+ T-cells and TP53-CD3 bispecific antibody; type: cell-based
melanoma line B16-F10 = assay: Syngeneic B16-F10 melanoma model; type: in vivo
[5] = system: nonsense mediated decay (NMD); assay: Targeted RNA sequencing of heterozygous indel mutations in NCI-H358 and LS180 cells; type: cell-based; details: NCI-H358 and LS180 cells treated in-vitro
Description: as §1, §2, §3

phosphorylated UPF1 = assay: Phospho-UPF1 specific western blot; type: cell-based; details: three different cell lines
Protocol: as §2, §3

SMG1 protein = SMG1 protein (Homo sapiens, UniProt Q96Q15); assay: Kinativ assay; type: binding; details: 100 nM run in duplicate
Chain of SMG1 protein (Q96Q15 whole entry): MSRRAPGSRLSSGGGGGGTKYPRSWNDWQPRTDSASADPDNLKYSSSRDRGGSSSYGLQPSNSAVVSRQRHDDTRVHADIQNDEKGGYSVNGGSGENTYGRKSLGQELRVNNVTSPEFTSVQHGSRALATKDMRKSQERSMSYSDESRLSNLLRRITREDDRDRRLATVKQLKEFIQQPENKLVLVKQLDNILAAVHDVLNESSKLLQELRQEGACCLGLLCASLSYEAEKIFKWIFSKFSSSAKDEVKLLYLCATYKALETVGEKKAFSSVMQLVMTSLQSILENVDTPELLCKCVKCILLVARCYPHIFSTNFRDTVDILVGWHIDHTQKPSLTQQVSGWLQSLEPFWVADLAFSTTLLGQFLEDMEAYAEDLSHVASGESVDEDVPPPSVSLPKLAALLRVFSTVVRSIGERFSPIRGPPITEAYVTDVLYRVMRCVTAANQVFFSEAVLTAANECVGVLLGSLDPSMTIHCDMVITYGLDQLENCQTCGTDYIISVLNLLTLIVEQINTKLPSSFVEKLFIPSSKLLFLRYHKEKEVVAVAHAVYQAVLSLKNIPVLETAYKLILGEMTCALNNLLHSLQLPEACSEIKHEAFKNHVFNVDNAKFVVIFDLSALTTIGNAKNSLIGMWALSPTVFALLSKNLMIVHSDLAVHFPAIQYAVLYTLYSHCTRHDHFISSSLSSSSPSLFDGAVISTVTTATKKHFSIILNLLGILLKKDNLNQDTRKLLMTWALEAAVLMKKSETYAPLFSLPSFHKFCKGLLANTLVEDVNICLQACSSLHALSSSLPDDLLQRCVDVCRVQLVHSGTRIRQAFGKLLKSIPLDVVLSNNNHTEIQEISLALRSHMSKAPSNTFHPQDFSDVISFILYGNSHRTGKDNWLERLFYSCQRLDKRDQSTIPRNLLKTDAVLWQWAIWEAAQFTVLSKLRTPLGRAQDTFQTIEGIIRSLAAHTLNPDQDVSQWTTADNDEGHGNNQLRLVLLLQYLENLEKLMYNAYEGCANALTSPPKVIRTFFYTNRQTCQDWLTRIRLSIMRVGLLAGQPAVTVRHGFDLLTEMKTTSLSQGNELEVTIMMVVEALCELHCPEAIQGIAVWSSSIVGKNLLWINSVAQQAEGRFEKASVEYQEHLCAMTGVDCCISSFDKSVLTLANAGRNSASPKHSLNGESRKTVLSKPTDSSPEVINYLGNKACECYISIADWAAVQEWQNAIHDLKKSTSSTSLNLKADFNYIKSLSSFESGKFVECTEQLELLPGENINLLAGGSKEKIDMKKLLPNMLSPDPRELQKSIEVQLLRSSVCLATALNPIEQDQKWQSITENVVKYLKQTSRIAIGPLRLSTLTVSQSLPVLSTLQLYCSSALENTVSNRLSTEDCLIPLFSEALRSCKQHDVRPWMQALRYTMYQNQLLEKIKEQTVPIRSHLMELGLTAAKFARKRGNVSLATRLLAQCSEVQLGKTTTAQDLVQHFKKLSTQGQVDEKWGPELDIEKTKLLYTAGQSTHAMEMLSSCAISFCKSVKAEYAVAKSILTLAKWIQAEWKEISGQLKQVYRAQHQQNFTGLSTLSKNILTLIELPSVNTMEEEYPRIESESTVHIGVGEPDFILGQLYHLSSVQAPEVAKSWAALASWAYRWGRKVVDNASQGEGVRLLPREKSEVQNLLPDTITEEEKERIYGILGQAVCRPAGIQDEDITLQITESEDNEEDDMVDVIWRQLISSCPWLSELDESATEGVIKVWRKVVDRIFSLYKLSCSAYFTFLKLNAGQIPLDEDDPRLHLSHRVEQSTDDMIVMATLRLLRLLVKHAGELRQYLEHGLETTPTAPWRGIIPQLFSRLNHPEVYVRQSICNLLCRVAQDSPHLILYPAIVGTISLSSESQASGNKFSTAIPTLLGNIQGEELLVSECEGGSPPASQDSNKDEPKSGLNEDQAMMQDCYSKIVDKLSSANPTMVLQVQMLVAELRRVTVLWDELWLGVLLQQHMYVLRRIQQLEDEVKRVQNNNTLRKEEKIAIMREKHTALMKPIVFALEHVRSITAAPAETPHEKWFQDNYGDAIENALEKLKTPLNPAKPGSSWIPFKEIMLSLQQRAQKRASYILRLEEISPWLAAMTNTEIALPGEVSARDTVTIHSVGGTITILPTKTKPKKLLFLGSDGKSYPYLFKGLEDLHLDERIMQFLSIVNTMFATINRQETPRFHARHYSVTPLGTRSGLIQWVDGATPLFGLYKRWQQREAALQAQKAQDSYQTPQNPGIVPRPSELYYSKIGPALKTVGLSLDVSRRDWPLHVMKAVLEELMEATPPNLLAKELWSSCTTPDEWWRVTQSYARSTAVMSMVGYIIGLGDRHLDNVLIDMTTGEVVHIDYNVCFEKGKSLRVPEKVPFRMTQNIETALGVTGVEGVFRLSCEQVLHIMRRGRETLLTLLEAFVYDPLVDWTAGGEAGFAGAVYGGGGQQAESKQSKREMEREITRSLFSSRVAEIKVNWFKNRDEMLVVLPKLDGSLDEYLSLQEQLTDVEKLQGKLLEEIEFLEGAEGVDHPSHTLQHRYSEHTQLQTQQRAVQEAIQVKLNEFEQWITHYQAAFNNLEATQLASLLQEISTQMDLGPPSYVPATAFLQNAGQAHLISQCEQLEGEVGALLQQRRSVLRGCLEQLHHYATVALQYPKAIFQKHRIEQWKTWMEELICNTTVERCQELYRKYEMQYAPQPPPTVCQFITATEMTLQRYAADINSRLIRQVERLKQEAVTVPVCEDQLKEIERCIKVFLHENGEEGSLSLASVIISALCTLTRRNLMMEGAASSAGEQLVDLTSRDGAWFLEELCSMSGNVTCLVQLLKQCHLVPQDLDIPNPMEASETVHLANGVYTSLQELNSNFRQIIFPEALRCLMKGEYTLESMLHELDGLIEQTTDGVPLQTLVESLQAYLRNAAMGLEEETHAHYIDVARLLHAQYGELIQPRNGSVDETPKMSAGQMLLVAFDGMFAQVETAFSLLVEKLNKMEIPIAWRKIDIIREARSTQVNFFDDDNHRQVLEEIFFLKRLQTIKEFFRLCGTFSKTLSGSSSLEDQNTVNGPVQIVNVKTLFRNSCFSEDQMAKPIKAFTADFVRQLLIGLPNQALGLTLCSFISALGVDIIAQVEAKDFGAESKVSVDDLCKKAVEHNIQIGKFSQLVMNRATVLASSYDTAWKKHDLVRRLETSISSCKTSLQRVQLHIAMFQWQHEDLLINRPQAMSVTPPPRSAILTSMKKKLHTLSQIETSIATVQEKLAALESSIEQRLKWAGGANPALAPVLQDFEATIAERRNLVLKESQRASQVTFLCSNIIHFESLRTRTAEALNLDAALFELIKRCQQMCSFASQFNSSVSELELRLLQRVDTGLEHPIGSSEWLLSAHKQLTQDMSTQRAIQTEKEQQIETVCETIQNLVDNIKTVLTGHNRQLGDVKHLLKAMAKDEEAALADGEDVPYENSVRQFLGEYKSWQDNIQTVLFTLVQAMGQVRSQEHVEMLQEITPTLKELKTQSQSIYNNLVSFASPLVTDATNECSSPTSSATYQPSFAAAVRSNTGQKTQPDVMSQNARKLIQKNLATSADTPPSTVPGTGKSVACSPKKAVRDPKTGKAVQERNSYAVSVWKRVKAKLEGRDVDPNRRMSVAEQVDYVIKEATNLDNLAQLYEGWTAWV

For `CNC(=O)Nc1ccc(-c2cc(-c3ccnc(Nc4ccc(Cl)c(S(=O)(=O)N5CCNCC5)c4)n3)ccn2)cc1` [compound of Formula I], the “cell surface MHC presentation of mutant specific neoantigen” value (NCI-H358 and LS180 cells) was “presence of a neoantigen specific to the mutant alleles of two genes in NCI-H358 and two other genes in LS180 cells”, the “toxicity related behavior (e.g., hunching, lethargy)” value ([1]; doses up to 50 mg/kg) was “did not show any toxicity related behavior” and the “mutant transcript levels in tumors relative to untreated mice” value ([1]; intraperitoneal (IP)) was “increases in mutant transcript levels”. For the same compound, the weight loss (RENCA (renal); BALB/c background, within tolerable limits) was “Some weight loss”, the tumor growth (RENCA (renal); BALB/c mice, 20 mg/kg) was “Significant slowing of tumor growth” and the “tumor growth in immunosuppressed mice” value (RENCA (renal); immunodeficient NSG (BALB/c) mice) was “minimal or no difference in cell growth”. The “mutant protein expression (western blot)” value [2] was “induce expression of the NMD targeted mutant protein”, the cell killing [3] was “cell killing only in cells with HLA-A24 present” and the “physical properties related to solubility” value [4] was “more desirable physical properties related to solubility”. The weight loss (LLC (Lewis Lung Cancer); C57BL/6N background) was “No weight loss”, the tumor growth (LLC (Lewis Lung Cancer); C57BL/6N mice, 30 mg/kg) was “Significant slowing of tumor growth” and the “tumor growth in immunosuppressed mice” value (LLC (Lewis Lung Cancer); immunodeficient C57BL/6N SCID mice) was “minimal or no difference in cell growth”. The interferon gamma release (NCI-H716 and NCI-2228; with bispecific antibody and human CD8+ T-cells) was “increase in interferon gamma release”, the interferon gamma levels (NCI-H716 and NCI-2228; without bispecific antibody) was “no change in interferon gamma levels” and the tumor volume (melanoma line B16-F10) was “showed a change in tumor volume”. For the same compound, the “bioactive concentration range (dose response curves)” value [5] was “bioactive in the nanomolar range”, the “amount of phosphorylated UPF1” value (phosphorylated UPF1) was “strongly decreased the amount of phosphorylated UPF1” and the “specificity for SMG1 over other kinases” value (SMG1 protein) was “maintains high specificity for SMG1 protein over other kinases”.
